In test [1] the target is T1, panel of 203 kinases (Homo sapiens, UniProt O14976).
T1 construct: purchased DiscoverX (KINOMEscan)
T1 sequence (O14976 1-1311): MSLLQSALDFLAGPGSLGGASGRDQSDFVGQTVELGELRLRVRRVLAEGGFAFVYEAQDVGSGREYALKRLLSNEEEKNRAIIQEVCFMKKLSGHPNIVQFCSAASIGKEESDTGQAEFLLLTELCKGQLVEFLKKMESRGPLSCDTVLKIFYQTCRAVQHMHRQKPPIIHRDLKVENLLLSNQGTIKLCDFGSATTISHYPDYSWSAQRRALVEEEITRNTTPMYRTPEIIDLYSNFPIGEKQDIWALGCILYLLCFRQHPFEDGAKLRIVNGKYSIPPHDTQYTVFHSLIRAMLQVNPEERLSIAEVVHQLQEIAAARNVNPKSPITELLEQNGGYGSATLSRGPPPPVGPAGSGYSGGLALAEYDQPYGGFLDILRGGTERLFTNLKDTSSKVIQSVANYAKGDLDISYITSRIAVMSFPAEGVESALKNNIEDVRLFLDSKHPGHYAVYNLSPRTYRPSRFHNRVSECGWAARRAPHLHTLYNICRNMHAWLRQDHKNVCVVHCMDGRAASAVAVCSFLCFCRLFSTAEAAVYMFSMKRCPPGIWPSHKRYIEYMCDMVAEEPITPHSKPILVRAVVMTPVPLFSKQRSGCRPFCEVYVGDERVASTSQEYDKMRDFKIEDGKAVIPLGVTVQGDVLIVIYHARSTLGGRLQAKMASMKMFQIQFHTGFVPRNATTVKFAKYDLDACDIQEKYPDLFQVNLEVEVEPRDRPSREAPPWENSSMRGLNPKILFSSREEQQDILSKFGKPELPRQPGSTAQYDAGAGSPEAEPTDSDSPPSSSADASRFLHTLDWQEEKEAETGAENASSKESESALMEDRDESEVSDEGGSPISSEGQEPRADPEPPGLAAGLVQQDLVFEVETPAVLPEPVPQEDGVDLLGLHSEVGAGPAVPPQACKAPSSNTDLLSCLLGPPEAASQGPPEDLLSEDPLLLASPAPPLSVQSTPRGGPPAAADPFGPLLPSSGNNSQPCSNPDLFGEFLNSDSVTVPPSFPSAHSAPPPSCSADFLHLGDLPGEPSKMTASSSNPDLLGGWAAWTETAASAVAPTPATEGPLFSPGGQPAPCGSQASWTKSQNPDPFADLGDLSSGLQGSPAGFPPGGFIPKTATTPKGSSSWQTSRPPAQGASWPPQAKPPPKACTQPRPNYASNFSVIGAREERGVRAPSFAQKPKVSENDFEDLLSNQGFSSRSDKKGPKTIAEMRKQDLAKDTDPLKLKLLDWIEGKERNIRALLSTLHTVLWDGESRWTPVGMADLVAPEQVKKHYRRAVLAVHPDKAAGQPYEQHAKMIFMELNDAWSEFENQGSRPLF
As to the kind of experiment: KINOMEscan competitive binding, whole panel. Particulars: 10 µM, n=1; kinase GAK; read-out: Percent inhibition GAK. The procedure, abridged:
(§1)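 T7 phage-fused kinases; compound displaces immobilized ATP-site probe ligand; bead-bound kinase quantified; % inhibition reported.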

In test [2] the target is T2, panel of 203 kinases (Homo sapiens, UniProt P29322).
T2 construct: purchased DiscoverX (KINOMEscan)
T2 sequence (P29322 28-1005): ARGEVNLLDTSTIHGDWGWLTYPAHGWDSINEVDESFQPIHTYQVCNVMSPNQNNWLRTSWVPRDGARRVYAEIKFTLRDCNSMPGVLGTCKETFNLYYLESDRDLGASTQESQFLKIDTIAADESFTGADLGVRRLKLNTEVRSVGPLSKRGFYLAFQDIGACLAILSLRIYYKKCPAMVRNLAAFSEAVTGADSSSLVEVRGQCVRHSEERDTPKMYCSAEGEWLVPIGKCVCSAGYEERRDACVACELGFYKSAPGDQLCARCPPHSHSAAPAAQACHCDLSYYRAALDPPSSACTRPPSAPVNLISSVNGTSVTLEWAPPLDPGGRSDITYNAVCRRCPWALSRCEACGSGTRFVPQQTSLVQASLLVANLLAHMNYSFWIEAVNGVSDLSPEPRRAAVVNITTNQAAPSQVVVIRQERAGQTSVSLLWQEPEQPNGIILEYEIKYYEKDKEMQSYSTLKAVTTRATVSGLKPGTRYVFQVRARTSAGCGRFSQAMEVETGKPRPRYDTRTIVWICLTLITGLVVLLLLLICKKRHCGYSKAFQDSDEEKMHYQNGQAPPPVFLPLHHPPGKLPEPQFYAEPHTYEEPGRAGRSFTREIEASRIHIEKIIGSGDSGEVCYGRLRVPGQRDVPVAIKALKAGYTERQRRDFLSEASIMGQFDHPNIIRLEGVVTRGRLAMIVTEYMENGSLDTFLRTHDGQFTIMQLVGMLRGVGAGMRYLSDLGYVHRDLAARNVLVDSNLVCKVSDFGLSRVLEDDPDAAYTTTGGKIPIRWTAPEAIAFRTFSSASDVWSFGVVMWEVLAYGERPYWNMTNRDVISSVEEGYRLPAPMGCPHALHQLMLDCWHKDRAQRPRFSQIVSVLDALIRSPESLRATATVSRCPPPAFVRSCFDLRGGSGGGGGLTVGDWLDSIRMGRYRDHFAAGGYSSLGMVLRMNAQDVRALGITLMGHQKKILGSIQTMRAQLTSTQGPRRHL
Briefly: KINOMEscan competitive binding, whole panel. As to conditions: 10 µM, n=1; kinase EPHA8; read-out: Percent inhibition EPHA8. The procedure, abridged: as §1

The values that follow come from PMC9927415, “Tyrosine Kinase Inhibitors Display Potent Activity against Cryptosporidium parvum” (Microbiology Spectrum, 2022).

With `Cc1ccc(O)cc1Nc1ccnc(Nc2cccc(C(N)=O)c2)n1` [Compound 3], the figures for the inhibition at 10 µM in test [1] and in test [2] were 99.8% and 100%, respectively.
The matching figures for `Clc1ccc(Nc2ncc(-c3ccccc3)s2)cc1` [Compound 10]: 0% and 0%.
The matching figures for `c1ccc(COc2cccc(-c3ccnc4[nH]ccc34)c2)cc1` [Compound 9]: 0% and 0%.
Turning to `Fc1cccc(COc2ccc(Nc3ncnc4c3CN(CCN3CCOCC3)CC4)cc2Cl)c1` [Compound 6], the inhibition at 10 µM in test [1] and in test [2] was 0% throughout.
For the compound `C[C@@H](Oc1cc(-c2cnc3ccccn23)sc1C(N)=O)c1ccccc1Cl` [Compound 8], the inhibition at 10 µM amounted to 97.2% in test [1] and 0% in test [2].
Take `CN1CCN(c2ccc(Nc3nccc(-c4cnn5ncccc45)n3)cc2C#N)CC1` [Compound 1]: the inhibition at 10 µM in test [1] worked out at 97.9%; in test [2], 0%.
Turning to `Cc1ccc(O)cc1N(C)c1ccnc(Nc2cccc(S(N)(=O)=O)c2)n1` [Compound 4], the inhibition at 10 µM is 99.6% in test [1] and 100% in test [2].
Take `COc1ccc(Nc2nccc(-c3cnn4ncccc34)n2)cc1` [Compound 2]: the values for the inhibition at 10 µM in test [1] and in test [2] were 99.9% and 0%, respectively.
For `Nc1ncc2c(-c3ccncc3)c[nH]c2n1` [Compound 11], the inhibition at 10 µM in test [1] was 97.2%; in test [2] it was 0%.
Consider `COc1cc(Nc2nccc(-c3sc(N)nc3-c3cccc(NC(=O)c4c(F)cccc4F)c3)n2)cc(OC)c1OC` [Compound 7], for which the inhibition at 10 µM in test [1] and in test [2] was 100% throughout.
